For data set [1] the following is noted: comparator value for simple phenyl-azide; cited from earlier work.
A further data set deals with T1, acetylated BSA (Bos taurus, UniProt P02769).
T1 construct: purchased Promega
Put plainly: Light-induced covalent labeling of model protein (slot blot, anti-biotin detection), with or without iridium catalyst Ir-9049. The following applies: 50 μM probe, 0.8 μM acetylated BSA, no catalyst, 20 minutes at 365 nm or 455 nm. The format is biochemical. The method, then: The capacity of these vinyl-extended aryl-azide-based photoreactive groups to undergo activation by either UV or visible 455 nm light in the presence or absence of a catalyst for subsequent covalent crosslinking with neighboring proteins was further evaluated through labeling efficiency of a model protein (FIGS. 4 and 5). […] Plates remained in the dark (control) or irradiated using Efficiency Aggregators biophotoreactor for 20 minutes at either 365 nm (100% UV=^˜80 W) or 455 nm (100%=^˜80 W or 2% 2 W). To evaluate subsequent covalent labeling efficiencies, reactions were subjected to Zeba column clean-up (ThermoFisher) to remove non-crosslinked vinyl-extended-aryl-azide-biotin probes and then spotted on nitrocellulose membranes using a slot blot apparatus. Membranes were then blocked with 5% BSA (Promega) in TBST for 1 hour at room temperature and subsequently incubated overnight at 4° C. with anti-biotin antibody (Invitrogen) in TBST. The next day membranes were washed 3 times with TBST and then incubated for an hour with a secondary anti-goat-HRP-antibody (Jackson laboratories). Following three washes in TBST, membranes were treated with ECL substrate (Promega) and scanned on the chemiluminescence channel to detect BSA labeled with biotin. […]

T1 sequence (P02769 25-607): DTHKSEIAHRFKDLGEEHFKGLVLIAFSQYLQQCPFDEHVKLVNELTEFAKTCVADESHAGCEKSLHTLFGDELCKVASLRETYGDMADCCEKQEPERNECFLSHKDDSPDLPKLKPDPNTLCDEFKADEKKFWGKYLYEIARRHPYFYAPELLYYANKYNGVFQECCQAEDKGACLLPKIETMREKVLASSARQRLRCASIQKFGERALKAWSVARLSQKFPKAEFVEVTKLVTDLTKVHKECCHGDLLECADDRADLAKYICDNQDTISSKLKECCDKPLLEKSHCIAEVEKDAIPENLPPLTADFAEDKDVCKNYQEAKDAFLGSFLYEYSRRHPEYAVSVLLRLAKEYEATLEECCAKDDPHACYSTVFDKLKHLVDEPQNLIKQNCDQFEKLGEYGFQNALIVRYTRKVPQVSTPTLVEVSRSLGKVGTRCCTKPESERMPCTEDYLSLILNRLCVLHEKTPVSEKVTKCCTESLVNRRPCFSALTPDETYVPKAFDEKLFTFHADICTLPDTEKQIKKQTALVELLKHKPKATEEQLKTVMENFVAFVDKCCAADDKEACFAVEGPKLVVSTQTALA

For the compound `[N-]=[N+]=Nc1ccccc1` [phenyl-azide], in data set [1], the λmax is on record as approximately 260 nm.

Take `C/C(=C\C(=O)NCCOCCOCCOCCOCCNC(=O)CCCC[C@@H]1SC[C@@H]2NC(=O)N[C@@H]21)c1ccc2cc(N=[N+]=[N-])ccc2c1` [Compound 9582]: the “UV versus 455 nm activation efficiencies (quantitated band volumes)” value on acetylated BSA is “greater 455 nm activation efficiencies”.

As for `C/C(=C\C(=O)NCCOCCOCCOCCOCCNC(=O)CCCC[C@@H]1SC[C@@H]2NC(=O)N[C@@H]21)c1ccc2cc(N=[N+]=[N-])c(C#N)cc2c1` [Compound 9616], the “UV versus 455 nm activation efficiencies (quantitated band volumes)” value at acetylated BSA is recorded as “greater 455 nm activation efficiencies”.

The values above are taken from US20230357266A1, “PHOTOA[…] AND USES THEREOF” (priority 2022, published 2023).
